According to US20240043859A1, “HERBICIDE-RESISTANT PROTEIN, AND GENE AND USE THEREOF” (QINGDAO KINGAGROOT CHEMICAL COMPOUND CO., LTD., priority 2020, published 2024):
“Also recorded” adds a separate entry of the source.

System: maize B104
Experiment: Herbicide-resistance capacity testing of transgenic maize (spray)
Type: in vivo
Details: 4.48 kg/ha foliage spray, 14 days / 15 days
Excerpt: 1. Vector construction: the overexpression vector was altered from pCambia3300, containing a Bar resistance gene that can be used as a selection marker for bialaphos (glufosinate). The AAD-like gene, QYD42, SEQ ID NO. 83, was linked to the pCambia3300 at the BamH I restriction site by seamless cloning to construct the transgenic vector pQY2329, of which the expression cassette consisted of a maize ubiquitin-1 promoter, the AAD gene and a Nos terminator, as shown in FIG. 7-1.
2. Genetic transformation of maizes: Maize transformation was carried out by the Agrobacterium-mediated immature embryo transformation method (Jones T, Lowe K, Hoerster G, et al. Maize Transformation Using the Morphogenic Genes Baby Boom and Wuschel2. Methods Mol Biol. 2019; 1864:81-93. Doi: 10.1007/978-1-4939-8778-8 6). The Agrobacterium (EHA105) comprising the pQY2329 overexpression vector was inoculated into YEP liquid medium (containing 25 mg/L Rifampicin and 50 mg/L Kanamycin), and shaking-cultured a t 28° C., 220 rmp/min overnight until the OD600 was about 1.0-1.5, then centrifuged at 6000 rmp/min for 10 min to collect the cells into a 50 ml centrifuge tube (sterilized). After discarding the supernatant, the cells were resuspended using MS infect culture medium (containing 68.5 g/L sucrose, 36 g/L glucose, pH 5.8) to OD550=0.8. […]

O=C(O)COc1ccc(Cl)cc1Cl [2,4-D, (2,4-dichlorophenoxy)acetic acid, reference compound]
Effect of the herbicide spray on non-transgenic maize B104: apparent phytotoxicity, root nodules, reduced root system and easily-lodging plant; also recorded: stem bases of maize B104 are swollen
